Results taken from paper PMC8807399, “Synthesis, Characterization, and in vivo Evaluation of a Novel Potent Autotaxin-Inhibitor” (Frontiers in Pharmacology, 2022).
Values after ≈ are worked out from the molar mass of the structure shown.

Assays:
[1] = Artificial membrane permeability assay; format: in vitro ADME; settings: PAMPA, read-out: Permeability Pe
Description: The assay was performed in an automated fashion on 96-well microplates. The permeation of drugs was measured using a “sandwich” construction: A filter-plate was coated with phospholipids (membrane) and placed into a donor compartment containing a compound/buffer solution. Finally, the top of filter-plate was filled with buffer solution (acceptor). Donor concentration was measured at t-start (reference) and compared with the donor and acceptor concentration after a certain time (t-end) to calculate the extent of passage of the compound through the membrane. The main readout of the assay was the permeability value Pe expressed in 10^–6 * cm/s. Secondary readouts determined were the amount of compound in the donor and acceptor compartments as well as the retention in the membrane. Depending on the permeation rate and the membrane retention the compounds were classified as low (Pe < 0.2 and membrane < 20%) or medium and high (Pe ≥ 0.2 or Pe < 0.2 and membrane ≥ 20%). Each sample was measured in triplicate and a standard deviation was determined for the permeation constant Pe.

total basal plasma LPA = assay: Plasma LPA profile in rat (PK/PD), basal LPA; format: in vivo
Description: Plasma samples were collected in triplicates at 0, 1, 3, 6, and 24 h and were added to heparinated tubes and kept at 0°C until further processing. Sampling and immediate processing at 0°C is crucial for the measurements of basal levels, since at higher temperatures, LPA is produced rapidly according to the ATX activity in the sample. One aliquot was used to determine basal levels of LPAs 16:0, 18:0, 18:1, and 20:4 as well as exposure of 13 by LC-MS/MS. A detailed method for LPA analysis is described in the Supplementary Material Section 1.3. The other 2 aliquots were used to determine ATX activity by incubation of the sample at 37°C for 4 h, followed again by analysis of LPA levels in the same way as for the basal LPA levels. LPA profiles were analyzed using MS Excel (Microsoft Corporation).
Therefore, modulation of total basal LPA was largely driven by modulation of LPA 20:4 (Figure 2A).

5HT1A = biological target: T1, 5HT1A (Homo sapiens, UniProt P08908); assay: Off-target screen 5HT1A; format: binding; settings: 10 µM; single point, duplicates
T1 construct: purchased Eurofins CEREP SA

5HT2B = biological target: T2, 5HT2B (Homo sapiens, UniProt P41595); assay: Off-target screen 5HT2B; format: binding; settings: 10 µM; single point, duplicates
T2 construct: purchased Eurofins CEREP SA
T2 sequence (P41595 whole entry): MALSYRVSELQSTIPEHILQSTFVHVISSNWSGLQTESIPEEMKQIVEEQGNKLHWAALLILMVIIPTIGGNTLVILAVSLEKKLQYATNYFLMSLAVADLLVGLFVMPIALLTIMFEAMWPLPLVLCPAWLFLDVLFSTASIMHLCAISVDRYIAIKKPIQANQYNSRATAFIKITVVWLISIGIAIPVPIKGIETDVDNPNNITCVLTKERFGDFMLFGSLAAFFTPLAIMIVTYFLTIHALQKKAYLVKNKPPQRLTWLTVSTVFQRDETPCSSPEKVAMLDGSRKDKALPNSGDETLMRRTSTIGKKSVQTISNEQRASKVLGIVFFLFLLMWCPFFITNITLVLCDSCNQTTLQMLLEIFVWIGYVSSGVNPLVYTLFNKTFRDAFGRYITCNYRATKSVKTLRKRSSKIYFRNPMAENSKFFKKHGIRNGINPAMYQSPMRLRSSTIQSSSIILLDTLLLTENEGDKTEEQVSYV

ADAM 17 = biological target: T3, ADAM 17 (Homo sapiens, UniProt P78536); assay: Off-target screen ADAM 17; format: biochemical; settings: 10 µM; single point, duplicates
T3 construct: purchased Eurofins CEREP SA

Adenosine A3 respetor = biological target: T4, Adenosine A3 respetor (Homo sapiens, UniProt P0DMS8); assay: Off-target screen Adenosine A3; format: binding; settings: 10 µM; single point, duplicates
T4 construct: purchased Eurofins CEREP SA
T4 sequence (P0DMS8 whole entry): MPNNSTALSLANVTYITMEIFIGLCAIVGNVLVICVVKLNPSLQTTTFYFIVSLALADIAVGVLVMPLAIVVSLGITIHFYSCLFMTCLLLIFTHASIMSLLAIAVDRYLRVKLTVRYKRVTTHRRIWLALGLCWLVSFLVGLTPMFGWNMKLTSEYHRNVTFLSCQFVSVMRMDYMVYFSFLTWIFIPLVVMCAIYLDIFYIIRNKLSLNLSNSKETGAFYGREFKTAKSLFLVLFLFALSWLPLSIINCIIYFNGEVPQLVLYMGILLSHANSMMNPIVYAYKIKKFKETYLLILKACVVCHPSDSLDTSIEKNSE

Androgen receptor = biological target: T5, Androgen receptor (Homo sapiens, UniProt P10275); assay: Off-target screen Androgen receptor; format: binding; settings: 10 µM; single point, duplicates
T5 construct: purchased Eurofins CEREP SA

Carbonic anhdrase II = biological target: T6, Carbonic anhdrase II (Homo sapiens, UniProt P00918); assay: Off-target screen Carbonic anhydrase II; format: biochemical; settings: 10 µM; single point, duplicates
T6 construct: purchased Eurofins CEREP SA

CDK2 = biological target: T7, CDK2 (Homo sapiens, UniProt P24941); assay: Off-target screen CDK2; format: biochemical; settings: 10 µM; single point, duplicates
T7 construct: purchased Eurofins CEREP SA

Dopamine D1 receptor = biological target: T8, Dopamine D1 receptor (Homo sapiens, UniProt P21728); assay: Off-target screen Dopamine D1; format: binding; settings: 10 µM; single point, duplicates
T8 construct: purchased Eurofins CEREP SA

ECE-1 = biological target: T9, ECE-1 (Homo sapiens, UniProt P42892); assay: Off-target screen ECE-1; format: biochemical; settings: 10 µM; single point, duplicates
T9 construct: purchased Eurofins CEREP SA
T9 sequence (P42892 whole entry): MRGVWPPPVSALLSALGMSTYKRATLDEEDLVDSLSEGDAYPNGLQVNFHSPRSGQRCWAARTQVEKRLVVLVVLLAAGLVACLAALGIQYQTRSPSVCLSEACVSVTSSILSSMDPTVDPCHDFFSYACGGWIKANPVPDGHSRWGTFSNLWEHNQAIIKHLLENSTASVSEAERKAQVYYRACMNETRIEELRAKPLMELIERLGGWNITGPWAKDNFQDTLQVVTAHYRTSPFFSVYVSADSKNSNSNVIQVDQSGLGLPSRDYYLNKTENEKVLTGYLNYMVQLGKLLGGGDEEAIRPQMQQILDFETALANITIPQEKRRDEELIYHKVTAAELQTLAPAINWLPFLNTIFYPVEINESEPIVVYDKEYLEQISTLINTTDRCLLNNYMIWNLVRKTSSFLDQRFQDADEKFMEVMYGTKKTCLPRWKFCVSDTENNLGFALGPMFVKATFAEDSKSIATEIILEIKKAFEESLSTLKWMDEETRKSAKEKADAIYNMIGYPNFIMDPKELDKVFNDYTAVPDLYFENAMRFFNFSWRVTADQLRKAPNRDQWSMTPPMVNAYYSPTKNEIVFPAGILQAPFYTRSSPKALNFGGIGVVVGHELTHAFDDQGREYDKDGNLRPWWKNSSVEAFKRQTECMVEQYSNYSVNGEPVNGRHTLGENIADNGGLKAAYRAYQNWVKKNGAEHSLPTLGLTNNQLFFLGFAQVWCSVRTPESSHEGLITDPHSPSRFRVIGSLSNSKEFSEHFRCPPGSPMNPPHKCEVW

GSK-3A = biological target: T10, GSK-3A (Homo sapiens, UniProt P49840); assay: Off-target screen GSK-3A; format: biochemical; settings: 10 µM; single point, duplicates
T10 construct: purchased Eurofins CEREP SA
T10 sequence (P49840 whole entry): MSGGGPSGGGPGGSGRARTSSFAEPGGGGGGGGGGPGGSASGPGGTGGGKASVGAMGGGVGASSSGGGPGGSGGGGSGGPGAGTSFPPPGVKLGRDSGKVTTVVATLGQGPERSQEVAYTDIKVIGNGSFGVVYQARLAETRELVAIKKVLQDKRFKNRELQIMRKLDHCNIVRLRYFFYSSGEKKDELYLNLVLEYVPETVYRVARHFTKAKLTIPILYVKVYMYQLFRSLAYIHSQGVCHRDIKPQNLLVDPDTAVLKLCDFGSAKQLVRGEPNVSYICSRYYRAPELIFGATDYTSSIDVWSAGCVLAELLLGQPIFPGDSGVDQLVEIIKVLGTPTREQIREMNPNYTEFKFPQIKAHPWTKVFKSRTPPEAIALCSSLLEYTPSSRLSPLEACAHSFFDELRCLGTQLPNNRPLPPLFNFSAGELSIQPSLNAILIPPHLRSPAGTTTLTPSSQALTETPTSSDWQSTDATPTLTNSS

HDAC3 = biological target: T11, HDAC3 (Homo sapiens, UniProt O15379); assay: Off-target screen HDAC3; format: biochemical; settings: 10 µM; single point, duplicates
T11 construct: purchased Eurofins CEREP SA
T11 sequence (O15379 whole entry): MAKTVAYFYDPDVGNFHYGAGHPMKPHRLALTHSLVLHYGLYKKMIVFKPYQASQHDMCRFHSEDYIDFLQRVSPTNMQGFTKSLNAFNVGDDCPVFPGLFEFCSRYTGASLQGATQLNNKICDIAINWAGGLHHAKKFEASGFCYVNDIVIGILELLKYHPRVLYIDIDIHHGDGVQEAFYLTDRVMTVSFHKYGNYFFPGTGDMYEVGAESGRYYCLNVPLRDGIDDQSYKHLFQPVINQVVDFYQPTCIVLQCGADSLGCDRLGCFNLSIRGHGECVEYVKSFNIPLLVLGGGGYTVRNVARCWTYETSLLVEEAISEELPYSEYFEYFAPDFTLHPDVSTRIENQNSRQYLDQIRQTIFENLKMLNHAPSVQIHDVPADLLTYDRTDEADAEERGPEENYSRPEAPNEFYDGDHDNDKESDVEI
T11 sequence (Q9Y618 395-489 partner limits assumed): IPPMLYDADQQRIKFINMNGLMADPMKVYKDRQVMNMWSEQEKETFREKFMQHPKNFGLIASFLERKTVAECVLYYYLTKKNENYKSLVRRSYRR

HDAC6 = biological target: T12, HDAC6 (Homo sapiens, UniProt Q9UBN7); assay: Off-target screen HDAC6; format: biochemical; settings: 10 µM; single point, duplicates
T12 construct: purchased Eurofins CEREP SA

Histamine H2 receptor = biological target: T13, Histamine H2 receptor (Homo sapiens, UniProt P25021); assay: Off-target screen Histamine H2; format: binding; settings: 10 µM; single point, duplicates
T13 construct: purchased Eurofins CEREP SA

Histamine H3 receptor = biological target: T14, Histamine H3 receptor (Homo sapiens, UniProt Q9Y5N1); assay: Off-target screen Histamine H3; format: binding; settings: 10 µM; single point, duplicates
T14 construct: purchased Eurofins CEREP SA
T14 sequence (Q9Y5N1 whole entry): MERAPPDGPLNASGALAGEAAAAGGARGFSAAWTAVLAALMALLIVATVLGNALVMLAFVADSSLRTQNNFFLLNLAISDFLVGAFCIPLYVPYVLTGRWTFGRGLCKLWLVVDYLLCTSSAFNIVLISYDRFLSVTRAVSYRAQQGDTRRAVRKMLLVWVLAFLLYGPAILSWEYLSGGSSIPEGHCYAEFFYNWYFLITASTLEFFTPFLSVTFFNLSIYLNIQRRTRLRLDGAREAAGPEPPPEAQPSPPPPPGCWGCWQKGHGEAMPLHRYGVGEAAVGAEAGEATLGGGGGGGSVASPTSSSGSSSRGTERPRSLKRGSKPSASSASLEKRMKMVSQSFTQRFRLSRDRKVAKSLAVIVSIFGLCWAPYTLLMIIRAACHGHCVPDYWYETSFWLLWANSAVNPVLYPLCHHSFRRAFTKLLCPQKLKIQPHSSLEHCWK

LPA1 receptor = biological target: T15, LPA1 receptor (Homo sapiens, UniProt Q92633); assay: Off-target screen LPA1 receptor; settings: 10 µM; single point, duplicates
T15 construct: purchased Eurofins CEREP SA
T15 sequence (Q92633 whole entry): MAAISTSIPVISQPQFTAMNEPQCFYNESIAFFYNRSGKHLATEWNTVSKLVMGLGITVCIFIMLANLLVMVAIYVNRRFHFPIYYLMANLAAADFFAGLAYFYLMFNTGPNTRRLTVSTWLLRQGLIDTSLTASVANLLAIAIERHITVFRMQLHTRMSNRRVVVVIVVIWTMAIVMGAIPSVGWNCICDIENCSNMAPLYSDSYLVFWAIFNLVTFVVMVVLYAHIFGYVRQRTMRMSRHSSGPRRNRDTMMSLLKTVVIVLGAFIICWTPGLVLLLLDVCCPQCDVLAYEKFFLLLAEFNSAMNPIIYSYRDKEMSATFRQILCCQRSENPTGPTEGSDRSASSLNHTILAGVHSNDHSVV

Muscarinic receptor M2 = biological target: T16, Muscarinic receptor M2 (Homo sapiens, UniProt P08172); assay: Off-target screen Muscarinic M2; format: binding; settings: 10 µM; single point, duplicates
T16 construct: purchased Eurofins CEREP SA

Muscarininc receptor M4 = biological target: T17, Muscarininc receptor M4 (Homo sapiens, UniProt P08173); assay: Off-target screen Muscarinic M4; format: binding; settings: 10 µM; single point, duplicates
T17 construct: purchased Eurofins CEREP SA

[2] = biological target: T18, Neprilysin (neutral endopeptidase) (Homo sapiens, UniProt P08473); assay: Off-target screen Neprilysin; format: biochemical; settings: 10 µM; single point, duplicates
T18 construct: purchased Eurofins CEREP SA

[3] = biological target: T19, Norepinephrine transporter (Homo sapiens, UniProt P23975); assay: Off-target screen Norepinephrine transporter; format: binding; settings: 10 µM; single point, duplicates
T19 construct: purchased Eurofins CEREP SA
T19 sequence (P23975 whole entry): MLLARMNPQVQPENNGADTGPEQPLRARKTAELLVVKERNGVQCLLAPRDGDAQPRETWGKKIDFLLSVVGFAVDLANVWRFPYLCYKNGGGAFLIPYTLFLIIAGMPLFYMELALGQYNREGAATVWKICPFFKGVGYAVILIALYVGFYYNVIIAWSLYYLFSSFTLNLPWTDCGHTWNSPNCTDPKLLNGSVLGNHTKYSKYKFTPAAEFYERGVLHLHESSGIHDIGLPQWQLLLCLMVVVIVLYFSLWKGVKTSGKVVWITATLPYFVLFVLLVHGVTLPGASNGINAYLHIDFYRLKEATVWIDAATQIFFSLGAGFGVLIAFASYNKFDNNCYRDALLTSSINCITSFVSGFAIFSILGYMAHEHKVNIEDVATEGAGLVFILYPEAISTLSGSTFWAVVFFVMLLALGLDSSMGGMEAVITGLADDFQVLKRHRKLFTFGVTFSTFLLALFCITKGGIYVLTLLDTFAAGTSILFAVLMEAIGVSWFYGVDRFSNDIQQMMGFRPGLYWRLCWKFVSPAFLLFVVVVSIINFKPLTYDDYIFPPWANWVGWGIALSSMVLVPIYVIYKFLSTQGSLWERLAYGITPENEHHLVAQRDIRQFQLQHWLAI

PPARγ = biological target: T20, PPARγ (Homo sapiens, UniProt P37231); assay: Off-target screen PPARγ, antagonist mode; format: cell-based; settings: 10 µM, single point, duplicates
T20 construct: purchased Eurofins CEREP SA
T20 sequence (P37231 whole entry): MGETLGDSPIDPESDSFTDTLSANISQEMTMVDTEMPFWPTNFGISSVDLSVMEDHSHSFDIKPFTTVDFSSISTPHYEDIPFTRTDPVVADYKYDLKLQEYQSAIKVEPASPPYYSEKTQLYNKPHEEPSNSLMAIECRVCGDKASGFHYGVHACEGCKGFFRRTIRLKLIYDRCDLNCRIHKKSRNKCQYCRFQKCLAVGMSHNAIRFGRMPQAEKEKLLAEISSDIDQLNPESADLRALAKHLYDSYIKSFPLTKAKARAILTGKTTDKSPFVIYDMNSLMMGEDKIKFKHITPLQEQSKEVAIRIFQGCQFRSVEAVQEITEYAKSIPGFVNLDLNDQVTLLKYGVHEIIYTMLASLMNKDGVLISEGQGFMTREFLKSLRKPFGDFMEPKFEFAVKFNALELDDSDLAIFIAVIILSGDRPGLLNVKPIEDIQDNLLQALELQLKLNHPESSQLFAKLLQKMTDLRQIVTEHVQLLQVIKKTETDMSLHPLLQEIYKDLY

S1P2 = biological target: T21, S1P2 (Homo sapiens, UniProt O95136); assay: Off-target screen S1P2, agonist mode; format: cell-based; settings: 10 µM, single point, duplicates
T21 construct: purchased Eurofins CEREP SA

S1P3 = biological target: T22, S1P3 (Homo sapiens, UniProt Q99500); assay: Off-target screen S1P3, agonist mode; format: cell-based; settings: 10 µM, single point, duplicates
T22 construct: purchased Eurofins CEREP SA

Somatostatin receptor 4 = biological target: T23, Somatostatin receptor 4 (Homo sapiens, UniProt P31391); assay: Off-target screen Somatostatin receptor 4; format: binding; settings: 10 µM; single point, duplicates
T23 construct: purchased Eurofins CEREP SA

Xanthine oxidase = biological target: T24, Xanthine oxidase (Bos taurus, UniProt P80457); assay: Off-target screen Xanthine oxidase; format: biochemical, b; settings: 10 µM; single point, duplicates
T24 construct: purchased Eurofins CEREP SA

Beta1-adrenoreceptor = biological target: T25, Beta1-adrenoreceptor (Homo sapiens, UniProt P08588); assay: Off-target screen Beta1-adrenoreceptor; format: binding; settings: 10 µM; single point, duplicates
T25 construct: purchased Eurofins CEREP SA

kappa opioid receptor = biological target: T26, kappa opioid receptor (Rattus norvegicus, UniProt P34975); assay: Off-target screen kappa opioid receptor; format: binding; settings: 10 µM; single point, duplicates
T26 construct: purchased Eurofins CEREP SA
T26 sequence (P34975 whole entry): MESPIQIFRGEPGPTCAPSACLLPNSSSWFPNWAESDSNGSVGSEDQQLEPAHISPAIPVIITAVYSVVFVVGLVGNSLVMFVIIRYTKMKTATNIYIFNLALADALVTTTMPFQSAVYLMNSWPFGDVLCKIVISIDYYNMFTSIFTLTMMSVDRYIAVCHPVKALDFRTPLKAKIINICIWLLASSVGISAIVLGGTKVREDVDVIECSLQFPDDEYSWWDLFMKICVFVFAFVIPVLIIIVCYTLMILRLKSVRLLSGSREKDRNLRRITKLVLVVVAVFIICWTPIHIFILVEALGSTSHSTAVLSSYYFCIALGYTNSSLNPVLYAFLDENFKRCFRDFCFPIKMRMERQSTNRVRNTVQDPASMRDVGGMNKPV

mu opioid receptor = biological target: T27, mu opioid receptor (Homo sapiens, UniProt P35372); assay: Off-target screen mu opioid receptor; format: binding; settings: 10 µM; single point, duplicates
T27 construct: purchased Eurofins CEREP SA

plasma ATX = plasma ATX (Rattus norvegicus, UniProt Q64610); assay: in vivo
Description: Plasma samples were collected in triplicates at 0, 1, 3, 6, and 24 h and were added to heparinated tubes and kept at 0°C until further processing. Sampling and immediate processing at 0°C is crucial for the measurements of basal levels, since at higher temperatures, LPA is produced rapidly according to the ATX activity in the sample. […] The other 2 aliquots were used to determine ATX activity by incubation of the sample at 37°C for 4 h, followed again by analysis of LPA levels in the same way as for the basal LPA levels.
For all doses (3, 10, and 30 mg/kg po), 5 animals/group were used. […] Values are mean ± SD.
To better observe the modulation of the individual LPA species, a second set of plasma samples was incubated at 37°C for 2 h prior to LC/MS analysis.

ML3R = assay: Off-target screen ML3R; settings: 10 µM; single point, duplicates
HIV-1 protease = assay: Off-target screen HIV-1 protease; settings: 10 µM; single point, duplicates
[4] = tested on: GABA-A (benzodiazepine site); assay: Off-target screen GABA-A (benzodiazepine site); settings: 10 µM; single point, duplicates

Compound: O=C(OCc1ccc(OC(F)(F)F)cc1)N1C[C@@H]2CN(C(=O)c3ccc4[nH]nnc4c3)C[C@H]2C1 [Compound 13, (3aS,6aS)-5-(1H-Benzotriazole-5-carbonyl)-hexahydro-pyrrolo[3,4-c]pyrrole-2-carboxylic acid 4-trifluoromethoxy-benzyl ester]
- Papp [1]: 4.5 ×10⁻⁶ cm/s
- IC50 (total basal plasma LPA; Rattus norvegicus, free plasma concentration, male Wistar rats, 3, 10, 30 mg/kg po, sum of LPA 16:0, 18:0, 18:1, 20:4, read-out: IC50 for the lowering of total basal LPA): ~3.2 ng/mL (≈ 6.73 nM)
- Estimated average ATX inhibition (total basal plasma LPA; rat, food admix 20 mg/kg, 2-weeks study at steady state, estimated from PK/PD relationship): > 75%
- 5HT1A (h) [% inhib] (5HT1A): -20 % inhib
- 5HT2B (h) [% inhib] (5HT2B): -3 % inhib
- ADAM 17 (h) [% inhib] (ADAM 17): 9 % inhib
- Adenosine A3 respetor (h) [% inhib] (Adenosine A3 respetor): 33 % inhib
- Androgen receptor (h) [% inhib] (Androgen receptor): -1 % inhib
- Carbonic anhdrase II (h) [% inhib] (Carbonic anhdrase II): -6 % inhib
- CDK2 (h) [% inhib] (CDK2): 0 % inhib
- Dopamine D1 receptor (h) [% inhib] (Dopamine D1 receptor): 0 % inhib
- ECE-1 (h) [% inhib] (ECE-1): 16 % inhib
- GSK-3A (h) [% inhib] (GSK-3A): -11 % inhib
- HDAC3 (h) [% inhib] (HDAC3): 1 % inhib
- HDAC6 (h) [% inhib] (HDAC6): -14 % inhib
- Histamine H2 receptor (h) [% inhib] (Histamine H2 receptor): 12 % inhib
- Histamine H3 receptor (h) [% inhib] (Histamine H3 receptor): -10 % inhib
- LPA1 receptor (h) [% inhib] (LPA1 receptor): -19 % inhib
- Muscarinic receptor M2 (h) [% inhib] (Muscarinic receptor M2): -15 % inhib
- Muscarininc receptor M4 (h) [% inhib] (Muscarininc receptor M4): -17 % inhib
- Neprilysin (neutral endopeptidase) (h) [% inhib] [2]: -29 % inhib
- Norepinephrine transporter (h) [% inhib] [3]: 20 % inhib
- PPARγ (h), antago. mode [% inhib] (PPARγ): 6 % inhib
- S1P2 (h), agonist mode [% pos ctrl] (S1P2): -2 % pos ctrl
- S1P3 (h), agonist mode [% pos ctrl] (S1P3): 8 % pos ctrl
- Somatostatin receptor 4 (h) [% inhib] (Somatostatin receptor 4): 12 % inhib
- Xanthine oxidase (b) [% inhib] (Xanthine oxidase): 7 % inhib
- Beta1-adrenoreceptor (h) [% inhib] (Beta1-adrenoreceptor): 2 % inhib
- kappa opioid receptor (r) [% inhib] (kappa opioid receptor): -1 % inhib
- mu opioid receptor (h) [% inhib] (mu opioid receptor): 15 % inhib
- IC50 (plasma ATX): ~1.47 nM
- ML3R (h) [% inhib] (ML3R): 48 % inhib
- HIV-1 protease (h) [% inhib] (HIV-1 protease): 0 % inhib
- GABA-A (benzodiazepine site) (r) [% inhib] [4]: -26 % inhib
